According to ChEMBL document CHEMBL4270501, “Indole-fused azepines and analogues as anticancer lead molecules: Privileged findings and future directions” (Eur J Med Chem, 2017):

System: MCF7
Experiment: Growth inhibition of human MCF7 cells by MTT assay
Assay type: functional, cell-based

IC50	Compound
600 nM	COc1ccc2c3c([nH]c2c1)-c1ccccc1NC(=O)C3
1200 nM	O=C1Cc2c([nH]c3ccccc23)-c2ccccc2N1 [PAULLONE]
